Data taken from US20040052750A1, “Compositions for prevention and alleviation of skin wrinkles” (priority 2000, published 2004).

Assays:
[1] = test system: hairless mice; assay: Alleviating photo-induced wrinkles in hairless mice; type: in vivo; conditions: twice a day for 6 weeks, 10 per group
Protocol: Mice were placed into 21 experimental groups and 3 control groups, with 10 rats per group. […] The experimental protocol is as follows. Hairless mice were radiated using a simulated sunlight at a dose of 2 MED (double Minimal Erythema Dose) 3 days a week for 10 weeks, thereby generating wrinkles. Then, respective active ingredients or the solvent only were applied at a volume of 100 μl each, twice a day for 6 weeks. Degrees of wrinkle reduction were determined. The determination was performed by visually observing the compound-applied region with naked eyes, and the region was photographed. The degrees of alleviation of wrinkles in the compound-treatment groups (experimental groups) were compared with those of the control group and were determined as one of 4 stages, that is, none (Score 0), slight (Score 1), moderate (Score 2) and high (Score 3), and the corresponding mice were counted.

[2] = test system: rat skin; assay: Promotion of collagen production in rat skin (hydroxyproline in implanted PVA sponge); type: in vivo, SD rats; conditions: 200 μl every day for 10 days, control = 100%
Protocol: In brief, 5-week male SD rats were grouped with 5 rats per group. The rats were each incised 1 cm in the center of their abdomens and PVA sponges (Unipoint ind.) were inserted therein. After suturing, as for experimental groups, respective active ingredients to be examined were applied to the PVA sponge-embeded regions i n a volume o f 200 μl every day for 10 days. Upon autopsy, the PVA sponge was removed to quantify hydroxyproline. The PVA sponge was added with 4 ml of 6 N HCl, hydrolized at 130° C. for 3 hours and was subjected to complete drying. 50 μl of methanol was added and the solution was incubated at 110° C. until HCl was removed. 1.2 ml of 50% isopropanol was added to dissolve the remaining precipitate. 200 μl of chloramine-T (sodium p-toluensulfochloramide trihydrate) solution was added while stirring, and let stand for 10 min. After adding 1.2 ml of Ehrlich reagent and mixing, the solution was incubated at 50° C. for 90 min. The resulting solution was cooled to room temperature and absorbance at 558 nm was measured. Hydroxyproline standard solutions were prepared by dissolving 1 mg hydroxyproline in 1 ml HCl and diluting it to concentrations of 0, 0.2, 0.4, 0.8, 1 mg each relative to 25 μl of 6 N HCl. The standard solutions were hydrolyzed at 130° C. for 3 hours. The quantified value of hydroxyproline, relative to hydroxyproline value (100%) of the control group which was applied with solvent only, are shown in Table 2.

[3] = test system: fibroblasts derived from a human; assay: Promoting collagen production in fibroblasts (3H-proline incorporation into collagenase-sensitive protein); type: cell-based; conditions: control = 100%
Protocol: The experimental protocol in detail is as follows.
Human-derived fibroblasts were transferred to a 24 well plate and cultured in a medium containing 10% fetal bovine serum (FBS) for 24 hours, followed by washing twice with phosphate buffered saline. […] After the incubation was terminated, cells from each group were harvested and two fractions of each culture were prepared. One fraction from each culture was treated with collagenase. To all fractions was added trichloroacetic acid to precipitate proteins. The amount of radioactivity incorporated into collagenase-sensitive protein was measured and compared with that of the other fraction which was not treated with collagenase. The difference in radioactivity was attributed to the promoting effect of the compound.

[4] = test system: hairless mice; assay: Inhibiting the generation of wrinkles in hairless mice (simulated sunlight); type: in vivo; conditions: 10 per group
Protocol: 6-week hairless mice were placed into 21 experimental groups and 3 control groups, with 10 rats per group. […] The experimental protocol in detail is as follows. Hairless mice were radiated using simulated sunlight at a dose of 2 MED (double Minimal Erythema Dose) 3 days a week for […], thereby generating wrinkles. Respective active ingredients or the solvent only were applied twice every day (specifically, on radiation days, the application was performed at 30 min before and after the radiation), at a volume of 100 μl each for 10 weeks from the first radiation day. Degrees of inhibition of generated wrinkles were determined. The determination was performed by visual observation with naked eyes and photography.

Row | Compound | Reduction of wrinkles, Score 0 (none) ([1]; 10^-3 M) | Reduction of wrinkles, Score 1 (slight) ([1]; 10^-3 M) | Reduction of wrinkles, Score 2 (moderate) ([1]; 10^-3 M) | Reduction of wrinkles, Score 3 (high) ([1]; 10^-3 M) | Reduction of wrinkles, Score 0 (none) ([1]; 10^-5 M) | Reduction of wrinkles, Score 1 (slight) ([1]; 10^-5 M) | Reduction of wrinkles, Score 2 (moderate) ([1]; 10^-5 M) | Reduction of wrinkles, Score 3 (high) ([1]; 10^-5 M) | Reduction of wrinkles, Score 0 (none) ([1]; 10^-8 M) | Reduction of wrinkles, Score 1 (slight) ([1]; 10^-8 M) | Reduction of wrinkles, Score 2 (moderate) ([1]; 10^-8 M) | Reduction of wrinkles, Score 3 (high) ([1]; 10^-8 M) | Effect of promoting collagen production in fibroblasts (rate of collagen production) ([3]; 10^-5 M) | Effect of promoting collagen production in fibroblasts (rate of collagen production) ([3]; 10^-6 M) | Effect of promoting collagen production in fibroblasts (rate of collagen production) ([3]; 10^-7 M) | Effect of promoting collagen production in fibroblasts (rate of collagen production) ([3]; 10^-8 M) | Inhibition of wrinkles, Score 0 (none) ([4]; 10^-3 M) | Inhibition of wrinkles, Score 1 (slight) ([4]; 10^-3 M) | Inhibition of wrinkles, Score 2 (moderate) ([4]; 10^-3 M) | Inhibition of wrinkles, Score 3 (high) ([4]; 10^-3 M) | also measured
1 | CCOC(=O)C1=C(COCCN)NC(C)=C(C(=O)OC)C1c1ccccc1Cl (centres unmarked) [Amoldipine] | 0 number of mice | 1 number of mice | 3 number of mice | 6 number of mice | 0 number of mice | 2 number of mice | 2 number of mice | 6 number of mice | 0 number of mice | 1 number of mice | 1 number of mice | 8 number of mice | 355.26% | 330.42% | 280.07% | 182.42% | 0 number of mice | 0 number of mice | 2 number of mice | 8 number of mice | Effect of promoting collagen production in animal skin (hydroxyproline value vs control) ([2]; 10^-5 M): 181.12%; Effect of promoting collagen production in animal skin (hydroxyproline value vs control) ([2]; 10^-6 M): 163.84%; Effect of promoting collagen production in animal skin (hydroxyproline value vs control) ([2]; 10^-7 M): 149.65%; Effect of promoting collagen production in animal skin (hydroxyproline value vs control) ([2]; 10^-8 M): 132.50%; Inhibition of wrinkles, Score 0 (none) ([4]; 10^-5 M): 0 number of mice; Inhibition of wrinkles, Score 1 (slight) ([4]; 10^-5 M): 1 number of mice; Inhibition of wrinkles, Score 2 (moderate) ([4]; 10^-5 M): 3 number of mice; Inhibition of wrinkles, Score 3 (high) ([4]; 10^-5 M): 6 number of mice; Inhibition of wrinkles, Score 0 (none) ([4]; 10^-8 M): 0 number of mice; Inhibition of wrinkles, Score 1 (slight) ([4]; 10^-8 M): 1 number of mice; Inhibition of wrinkles, Score 2 (moderate) ([4]; 10^-8 M): 1 number of mice; Inhibition of wrinkles, Score 3 (high) ([4]; 10^-8 M): 8 number of mice
2 | COc1ccc([C@@H]2Sc3ccccc3N(CCN(C)C)C(=O)[C@@H]2OC(C)=O)cc1 [Diltiazem] | 0 number of mice | 0 number of mice | 2 number of mice | 8 number of mice | 0 number of mice | 1 number of mice | 2 number of mice | 7 number of mice | 0 number of mice | 1 number of mice | 2 number of mice | 7 number of mice | 362.12% | 321.23% | 276.25% | 199.15% | 0 number of mice | 1 number of mice | 2 number of mice | 7 number of mice | Effect of promoting collagen production in animal skin (hydroxyproline value vs control) ([2]; 10^-5 M): 175.23%; Effect of promoting collagen production in animal skin (hydroxyproline value vs control) ([2]; 10^-6 M): 157.45%; Effect of promoting collagen production in animal skin (hydroxyproline value vs control) ([2]; 10^-7 M): 136.76%; Effect of promoting collagen production in animal skin (hydroxyproline value vs control) ([2]; 10^-8 M): 122.44%; Inhibition of wrinkles, Score 0 (none) ([4]; 10^-5 M): 0 number of mice; Inhibition of wrinkles, Score 1 (slight) ([4]; 10^-5 M): 2 number of mice; Inhibition of wrinkles, Score 2 (moderate) ([4]; 10^-5 M): 2 number of mice; Inhibition of wrinkles, Score 3 (high) ([4]; 10^-5 M): 6 number of mice; Inhibition of wrinkles, Score 0 (none) ([4]; 10^-8 M): 0 number of mice; Inhibition of wrinkles, Score 1 (slight) ([4]; 10^-8 M): 2 number of mice; Inhibition of wrinkles, Score 2 (moderate) ([4]; 10^-8 M): 2 number of mice; Inhibition of wrinkles, Score 3 (high) ([4]; 10^-8 M): 6 number of mice
3 | COC(=O)C1=C(C)NC(C)=C(C(=O)OC)C1c1ccccc1[N+](=O)[O-] [Nifedipine] | 0 number of mice | 2 number of mice | 2 number of mice | 6 number of mice | 0 number of mice | 2 number of mice | 2 number of mice | 6 number of mice | 0 number of mice | 2 number of mice | 3 number of mice | 5 number of mice | 358.16% | 330.30% | 292.21% | 204.31% | 0 number of mice | 2 number of mice | 3 number of mice | 5 number of mice | Inhibition of wrinkles, Score 0 (none) ([4]; 10^-5 M): 0 number of mice; Inhibition of wrinkles, Score 1 (slight) ([4]; 10^-5 M): 2 number of mice; Inhibition of wrinkles, Score 2 (moderate) ([4]; 10^-5 M): 3 number of mice; Inhibition of wrinkles, Score 3 (high) ([4]; 10^-5 M): 5 number of mice; Inhibition of wrinkles, Score 0 (none) ([4]; 10^-8 M): 0 number of mice; Inhibition of wrinkles, Score 1 (slight) ([4]; 10^-8 M): 2 number of mice; Inhibition of wrinkles, Score 2 (moderate) ([4]; 10^-8 M): 3 number of mice; Inhibition of wrinkles, Score 3 (high) ([4]; 10^-8 M): 5 number of mice
